This is an account of results in PMC5766233, “Ternary copper(II) complex: NCI60 screening, toxicity studies, and evaluation of efficacy in xenograft models of nasopharyngeal carcinoma” (PLoS ONE, 2018).

For one data set, the system named is CYP1A. Briefly: Cytochrome P450 induction assay in rat primary hepatocytes, CYP1A. It counts as in vitro ADME. To be noted: 1.0 μM, 3 days. The text has this: %Activity=(averagearearatiooftreated/averagearearatioofbasalcontrol)x100
The subject of a further data set is NCI leukemia cell lines. Particulars: cited from earlier work.
A short description of data set [1]: Cytotoxicity in rat primary hepatocytes (resazurin). To be noted: male, Wistar, rat, freshly isolated rat primary hepatocytes. For orientation: Alamar Blue is a resazurin reagent that responds to reducing activity.
In data set [2] the test system is BGC823 (gastric cancer cells) xenograft. Set-up: method as in earlier work. Particulars: cited from earlier work.
Data set [3] deals with NCI60 human cancer cell line panel. To be noted: ref cisplatin NSC number 119875; cited from earlier work.

Some results are limits rather than exact numbers.

As usually defined, the fold induction is the ratio of treated to control signal. Lower therefore signals little rise in signal. As for `Cc1ccc2cc3c(ccc4ccccc43)c3c2c1CC3` [3-Methyl cholanthrene, reference compound], the “Fold induction CYP1A” value with CYP1A worked out at 10.9. For the same compound, the fold induction at 3 days, 1 µM with CYP1A (rat, rat primary hepatocytes, probe phenacetin (100 μM in HBSS)) was > 10. Take `O=C([O-])c1ccccc1C(=O)[O-].[Cu+2].c1cnc2c(c1)ccc1cccnc12` [[Cu(o-phthalate)(phenanthroline)]]: the “sensitivity of most NCI leukemia cell lines” value in the data set on NCI leukemia cell lines is listed as “resistant”. Usually IC50 stands for the concentration at which inhibition is half-maximal. Take `CC/C(=C(\c1ccccc1)c1ccc(OCCN(C)C)cc1)c1ccccc1` [Tamoxifen, reference compound]: in data set [1], half-maximal inhibition (IC50 at 72 h) was put at 5.1 µM. Broadly, the GI50 is the concentration giving 50% growth inhibition. For the compound `N.N.[Cl][Pt][Cl]` [cisplatin], in data set [2] (4 mg/kg), the organ damage result is “considerable damage to liver and kidney”; the “xenograft growth, compared with [Ru(dmb)2(salH)]PF6” value was “slightly less effective”. In data set [3], the GI50 was 1.49 µM. For [Ru(dmb)2(salH)]PF6, in data set [2] (5 mg/kg), the “toxicity compared to cisplatin” value is “insignificant nephrotoxicity and nephrotoxicity”; the xenograft growth entry is given as “significantly suppressed”.
